According to ChEMBL document CHEMBL4507263, “Data for DCP probe BAY-474” (2021):

Assays:
[1] = target: Mitogen-activated protein kinase 12 (Homo sapiens) (UniProt P53778); assay: SAPK3 (h) Millipore kinase activity assay; conditions: Compound concentration 1.0 uM
[2] = target: T1, cGMP-dependent protein kinase 1 (Homo sapiens) (UniProt Q13976); assay: PKG1alpha (h) Millipore kinase activity assay; conditions: Compound concentration 1.0 uM
T1 sequence (whole entry): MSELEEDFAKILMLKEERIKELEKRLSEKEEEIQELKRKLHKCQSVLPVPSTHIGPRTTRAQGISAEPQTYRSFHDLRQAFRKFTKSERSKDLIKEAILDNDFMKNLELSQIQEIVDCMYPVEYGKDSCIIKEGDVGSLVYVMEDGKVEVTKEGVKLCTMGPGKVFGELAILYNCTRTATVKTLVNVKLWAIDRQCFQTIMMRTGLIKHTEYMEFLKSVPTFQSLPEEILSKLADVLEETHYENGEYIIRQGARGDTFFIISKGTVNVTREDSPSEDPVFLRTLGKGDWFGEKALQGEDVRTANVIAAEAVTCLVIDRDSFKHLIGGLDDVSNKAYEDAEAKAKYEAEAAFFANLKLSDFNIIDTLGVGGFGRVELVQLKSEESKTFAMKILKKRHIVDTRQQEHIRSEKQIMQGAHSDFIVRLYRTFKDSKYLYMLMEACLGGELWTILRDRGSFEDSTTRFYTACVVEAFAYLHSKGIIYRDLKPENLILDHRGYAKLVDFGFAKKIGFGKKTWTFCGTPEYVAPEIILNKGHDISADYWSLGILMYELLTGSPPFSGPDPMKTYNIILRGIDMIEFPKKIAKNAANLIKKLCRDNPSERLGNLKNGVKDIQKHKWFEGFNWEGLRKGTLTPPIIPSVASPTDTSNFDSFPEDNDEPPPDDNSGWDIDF

[3] = target: Adenosine receptor A3 (Homo sapiens) (UniProt P0DMS8); conditions: Compound concentration 10.0 uM
[4] = target: Protein kinase C epsilon type (Homo sapiens) (UniProt Q02156); assay: PKCepsilon (h) Millipore kinase activity assay; conditions: Compound concentration 1.0 uM
[5] = target: Ephrin type-A receptor 2 (Homo sapiens) (UniProt P29317); assay: EphA2 (h) Millipore kinase activity assay; conditions: Compound concentration 1.0 uM
[6] = target: Cyclin-dependent kinase 5/CDK5 activator 1 (Homo sapiens) (UniProt Q00535+Q15078); assay: CDK5/p35 (h) Millipore kinase activity assay; assay type: protein-complex assay; conditions: Compound concentration 1.0 uM
[7] = target: Dual specificity mitogen-activated protein kinase kinase 7 (Homo sapiens) (UniProt O14733); assay: MKK7beta (h) Millipore kinase activity assay; conditions: Compound concentration 1.0 uM
[8] = target: High affinity nerve growth factor receptor (Homo sapiens) (UniProt P04629); assay: TrkA (h) Millipore kinase activity assay; conditions: Compound concentration 1.0 uM
[9] = target: Muscarinic acetylcholine receptor M5 (Homo sapiens) (UniProt P08912); conditions: Compound concentration 10.0 uM
[10] = target: Mu-type opioid receptor (Homo sapiens) (UniProt P35372); conditions: Compound concentration 10.0 uM
[11] = target: NUAK family SNF1-like kinase 1 (Homo sapiens) (UniProt O60285); assay: ARK5 (h) Millipore kinase activity assay; conditions: Compound concentration 1.0 uM
[12] = target: T2, 5-hydroxytryptamine receptor 1A (Homo sapiens) (UniProt P08908); conditions: Compound concentration 10.0 uM
T2 sequence (whole entry): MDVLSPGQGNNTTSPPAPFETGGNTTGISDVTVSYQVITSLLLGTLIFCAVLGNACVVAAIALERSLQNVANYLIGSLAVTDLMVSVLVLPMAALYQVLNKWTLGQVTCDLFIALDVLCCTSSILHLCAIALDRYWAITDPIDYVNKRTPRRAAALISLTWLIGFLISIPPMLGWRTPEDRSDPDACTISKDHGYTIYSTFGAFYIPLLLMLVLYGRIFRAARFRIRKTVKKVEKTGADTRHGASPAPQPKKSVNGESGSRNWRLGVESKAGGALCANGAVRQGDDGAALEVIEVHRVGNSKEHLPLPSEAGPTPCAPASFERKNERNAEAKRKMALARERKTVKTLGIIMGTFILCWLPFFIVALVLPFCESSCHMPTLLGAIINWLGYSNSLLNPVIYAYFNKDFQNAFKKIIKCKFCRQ

[13] = target: Prostaglandin E2 receptor EP4 subtype (Homo sapiens) (UniProt P35408); assay: Inhibition of Prostanoid EP4 at 10 µM in the Eurofins-Panlabs radioligand binding assay (Eurofins_assay_268420); parameters: ligand concentration 1 nM; conditions: Compound concentration 10.0 uM
[14] = target: T3, Muscarinic acetylcholine receptor M1 (Homo sapiens) (UniProt P11229); conditions: Compound concentration 10.0 uM
T3 sequence (whole entry): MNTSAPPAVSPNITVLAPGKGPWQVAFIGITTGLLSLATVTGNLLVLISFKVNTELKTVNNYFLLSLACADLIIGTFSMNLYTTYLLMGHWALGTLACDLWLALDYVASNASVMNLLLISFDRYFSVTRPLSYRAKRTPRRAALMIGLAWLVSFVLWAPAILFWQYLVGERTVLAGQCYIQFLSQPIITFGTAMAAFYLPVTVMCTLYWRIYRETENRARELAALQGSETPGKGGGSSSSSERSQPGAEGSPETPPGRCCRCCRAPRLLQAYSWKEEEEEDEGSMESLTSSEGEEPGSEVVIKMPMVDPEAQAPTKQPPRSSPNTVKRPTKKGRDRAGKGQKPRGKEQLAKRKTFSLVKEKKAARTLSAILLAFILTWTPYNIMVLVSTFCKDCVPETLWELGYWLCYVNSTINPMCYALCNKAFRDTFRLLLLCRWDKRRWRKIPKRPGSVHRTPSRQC

[15] = target: RAC-gamma serine/threonine-protein kinase (Homo sapiens) (UniProt Q9Y243); conditions: Compound concentration 1000.0 nM
[16] = target: Serine/threonine-protein kinase 35 (Homo sapiens) (UniProt Q8TDR2); conditions: Compound concentration 1000.0 nM
[17] = target: Mitogen-activated protein kinase kinase kinase 4 (Homo sapiens) (UniProt Q9Y6R4); conditions: Compound concentration 1000.0 nM
[18] = tested on: Mast/stem cell growth factor receptor Kit (Homo sapiens), P10721 [D816H]; conditions: Compound concentration 1000.0 nM
[19] = target: Death-associated protein kinase 3 (Homo sapiens) (UniProt O43293); conditions: Compound concentration 1000.0 nM
[20] = target: Dual specificity protein kinase TTK (Homo sapiens) (UniProt P33981); conditions: Compound concentration 1000.0 nM
[21] = target: Platelet-derived growth factor receptor alpha (Homo sapiens) (UniProt P16234); conditions: Compound concentration 1000.0 nM
[22] = target: Ephrin type-A receptor 2 (Homo sapiens) (UniProt P29317); conditions: Compound concentration 1000.0 nM
[23] = target: Cyclin-dependent kinase 16 (Homo sapiens) (UniProt Q00536); conditions: Compound concentration 1000.0 nM
[24] = target: Myosin light chain kinase, smooth muscle (Homo sapiens) (UniProt Q15746); conditions: Compound concentration 1000.0 nM

Chain of Mu-type opioid receptor (Homo sapiens) (P35372 whole entry): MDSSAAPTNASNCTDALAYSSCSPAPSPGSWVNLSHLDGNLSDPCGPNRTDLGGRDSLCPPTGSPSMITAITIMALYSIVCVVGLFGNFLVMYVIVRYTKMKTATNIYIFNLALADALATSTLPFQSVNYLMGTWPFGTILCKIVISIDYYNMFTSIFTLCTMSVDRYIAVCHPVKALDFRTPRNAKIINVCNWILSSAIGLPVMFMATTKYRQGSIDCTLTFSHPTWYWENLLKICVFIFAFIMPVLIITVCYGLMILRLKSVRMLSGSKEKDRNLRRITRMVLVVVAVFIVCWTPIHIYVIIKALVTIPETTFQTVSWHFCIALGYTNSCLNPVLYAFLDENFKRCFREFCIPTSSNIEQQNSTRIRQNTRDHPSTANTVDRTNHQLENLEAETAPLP
Chain of Muscarinic acetylcholine receptor M5 (Homo sapiens) (P08912 whole entry): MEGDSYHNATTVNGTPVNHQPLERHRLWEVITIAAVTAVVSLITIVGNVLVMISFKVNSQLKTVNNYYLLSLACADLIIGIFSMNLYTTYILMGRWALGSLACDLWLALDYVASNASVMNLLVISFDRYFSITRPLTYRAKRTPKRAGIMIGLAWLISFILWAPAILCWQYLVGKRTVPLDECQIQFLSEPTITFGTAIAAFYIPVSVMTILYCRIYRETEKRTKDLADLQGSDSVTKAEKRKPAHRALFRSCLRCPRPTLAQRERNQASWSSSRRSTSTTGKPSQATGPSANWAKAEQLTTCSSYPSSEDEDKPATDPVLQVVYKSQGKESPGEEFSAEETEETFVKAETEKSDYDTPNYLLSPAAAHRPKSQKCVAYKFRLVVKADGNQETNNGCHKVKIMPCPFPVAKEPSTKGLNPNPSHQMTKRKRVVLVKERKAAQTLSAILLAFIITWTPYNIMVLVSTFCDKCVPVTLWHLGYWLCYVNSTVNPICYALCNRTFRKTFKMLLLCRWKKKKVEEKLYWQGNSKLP
Chain of Ephrin type-A receptor 2 (Homo sapiens) (P29317 whole entry): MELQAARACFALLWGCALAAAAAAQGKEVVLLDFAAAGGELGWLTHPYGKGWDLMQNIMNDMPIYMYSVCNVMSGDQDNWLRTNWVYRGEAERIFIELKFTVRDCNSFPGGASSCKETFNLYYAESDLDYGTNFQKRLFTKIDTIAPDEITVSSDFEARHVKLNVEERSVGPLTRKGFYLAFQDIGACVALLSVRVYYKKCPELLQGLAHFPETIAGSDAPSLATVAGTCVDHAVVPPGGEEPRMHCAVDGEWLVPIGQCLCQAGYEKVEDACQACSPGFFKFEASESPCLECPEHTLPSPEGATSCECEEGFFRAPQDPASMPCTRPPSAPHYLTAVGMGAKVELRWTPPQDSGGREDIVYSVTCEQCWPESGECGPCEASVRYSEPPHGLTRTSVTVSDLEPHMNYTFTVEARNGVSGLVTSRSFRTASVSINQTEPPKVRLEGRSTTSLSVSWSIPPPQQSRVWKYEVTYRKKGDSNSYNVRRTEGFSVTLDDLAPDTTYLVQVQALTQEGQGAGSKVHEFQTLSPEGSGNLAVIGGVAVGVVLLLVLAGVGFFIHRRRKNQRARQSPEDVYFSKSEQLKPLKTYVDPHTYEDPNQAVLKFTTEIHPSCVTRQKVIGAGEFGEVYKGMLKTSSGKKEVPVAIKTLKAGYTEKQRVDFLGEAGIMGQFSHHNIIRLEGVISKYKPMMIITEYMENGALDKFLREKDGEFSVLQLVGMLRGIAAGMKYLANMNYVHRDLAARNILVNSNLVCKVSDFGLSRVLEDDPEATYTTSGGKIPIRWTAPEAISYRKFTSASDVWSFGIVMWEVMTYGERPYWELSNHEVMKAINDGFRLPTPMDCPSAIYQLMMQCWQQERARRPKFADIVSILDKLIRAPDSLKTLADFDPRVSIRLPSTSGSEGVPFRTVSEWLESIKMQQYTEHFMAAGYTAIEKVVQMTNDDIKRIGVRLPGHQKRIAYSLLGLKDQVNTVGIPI
Chain of Serine/threonine-protein kinase 35 (Homo sapiens) (Q8TDR2 whole entry): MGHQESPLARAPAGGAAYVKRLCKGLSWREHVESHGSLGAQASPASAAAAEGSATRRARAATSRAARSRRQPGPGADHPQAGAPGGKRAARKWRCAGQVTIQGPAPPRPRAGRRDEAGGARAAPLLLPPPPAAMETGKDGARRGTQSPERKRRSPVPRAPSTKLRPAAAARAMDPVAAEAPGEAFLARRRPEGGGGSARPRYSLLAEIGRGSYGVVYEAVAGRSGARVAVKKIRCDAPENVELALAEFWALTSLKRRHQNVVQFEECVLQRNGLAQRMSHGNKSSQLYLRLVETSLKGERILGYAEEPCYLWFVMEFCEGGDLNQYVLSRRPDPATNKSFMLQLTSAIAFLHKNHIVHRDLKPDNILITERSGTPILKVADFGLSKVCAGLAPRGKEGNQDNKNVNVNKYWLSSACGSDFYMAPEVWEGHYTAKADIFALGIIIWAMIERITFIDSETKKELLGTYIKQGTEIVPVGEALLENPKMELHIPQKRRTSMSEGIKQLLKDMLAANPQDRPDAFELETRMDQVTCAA
Chain of Mitogen-activated protein kinase kinase kinase 4 (Homo sapiens) (Q9Y6R4 whole entry): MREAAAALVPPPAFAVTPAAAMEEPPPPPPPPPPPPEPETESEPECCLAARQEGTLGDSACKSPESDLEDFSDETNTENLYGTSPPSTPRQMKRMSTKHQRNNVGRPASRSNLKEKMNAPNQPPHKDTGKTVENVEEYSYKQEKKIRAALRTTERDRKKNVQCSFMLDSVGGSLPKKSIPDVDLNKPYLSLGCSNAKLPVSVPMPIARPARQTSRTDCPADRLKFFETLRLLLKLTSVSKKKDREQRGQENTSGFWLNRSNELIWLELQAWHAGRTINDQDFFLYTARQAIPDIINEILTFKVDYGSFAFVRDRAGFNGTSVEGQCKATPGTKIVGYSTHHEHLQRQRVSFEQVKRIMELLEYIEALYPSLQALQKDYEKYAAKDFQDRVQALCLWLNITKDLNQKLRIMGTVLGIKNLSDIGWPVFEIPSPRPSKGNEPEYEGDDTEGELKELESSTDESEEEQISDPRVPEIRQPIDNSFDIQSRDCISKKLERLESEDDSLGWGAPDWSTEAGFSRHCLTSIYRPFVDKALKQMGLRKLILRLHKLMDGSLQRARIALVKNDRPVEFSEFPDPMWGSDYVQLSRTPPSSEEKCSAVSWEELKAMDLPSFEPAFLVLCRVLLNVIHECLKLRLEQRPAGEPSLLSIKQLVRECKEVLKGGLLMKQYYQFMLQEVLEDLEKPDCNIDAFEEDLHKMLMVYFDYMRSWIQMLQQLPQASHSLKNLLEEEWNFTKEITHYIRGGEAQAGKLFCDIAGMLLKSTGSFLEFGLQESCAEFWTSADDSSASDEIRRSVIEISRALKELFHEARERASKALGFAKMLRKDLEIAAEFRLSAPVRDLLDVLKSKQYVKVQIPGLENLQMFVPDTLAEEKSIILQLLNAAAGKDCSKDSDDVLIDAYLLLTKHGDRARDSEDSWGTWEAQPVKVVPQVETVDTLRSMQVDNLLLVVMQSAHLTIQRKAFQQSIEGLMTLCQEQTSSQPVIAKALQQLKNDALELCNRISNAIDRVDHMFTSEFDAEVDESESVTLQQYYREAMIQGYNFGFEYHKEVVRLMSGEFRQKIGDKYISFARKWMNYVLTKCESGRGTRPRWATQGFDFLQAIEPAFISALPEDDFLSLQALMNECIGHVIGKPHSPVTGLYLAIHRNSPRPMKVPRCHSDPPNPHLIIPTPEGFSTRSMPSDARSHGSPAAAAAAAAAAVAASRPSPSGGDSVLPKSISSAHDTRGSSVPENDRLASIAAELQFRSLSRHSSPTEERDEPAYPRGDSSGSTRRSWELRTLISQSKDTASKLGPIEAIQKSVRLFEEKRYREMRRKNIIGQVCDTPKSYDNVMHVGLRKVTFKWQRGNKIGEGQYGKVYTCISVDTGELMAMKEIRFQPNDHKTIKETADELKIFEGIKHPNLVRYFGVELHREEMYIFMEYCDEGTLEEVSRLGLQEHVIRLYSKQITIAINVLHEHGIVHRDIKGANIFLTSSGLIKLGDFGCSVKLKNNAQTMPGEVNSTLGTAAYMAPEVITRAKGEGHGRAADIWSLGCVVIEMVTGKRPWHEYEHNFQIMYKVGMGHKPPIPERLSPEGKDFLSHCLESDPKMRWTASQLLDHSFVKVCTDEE
Chain of Mitogen-activated protein kinase 12 (Homo sapiens) (P53778 whole entry): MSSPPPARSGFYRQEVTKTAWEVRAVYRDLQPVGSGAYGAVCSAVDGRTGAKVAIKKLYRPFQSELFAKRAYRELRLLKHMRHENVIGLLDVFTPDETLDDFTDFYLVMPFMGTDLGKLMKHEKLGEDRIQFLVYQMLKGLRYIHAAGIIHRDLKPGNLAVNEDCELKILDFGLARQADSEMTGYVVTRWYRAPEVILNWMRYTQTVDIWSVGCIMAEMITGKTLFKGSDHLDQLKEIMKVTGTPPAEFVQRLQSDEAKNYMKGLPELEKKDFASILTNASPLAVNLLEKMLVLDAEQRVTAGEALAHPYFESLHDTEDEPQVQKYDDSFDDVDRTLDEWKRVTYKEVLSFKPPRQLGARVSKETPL
Chain of Dual specificity mitogen-activated protein kinase kinase 7 (Homo sapiens) (O14733 whole entry): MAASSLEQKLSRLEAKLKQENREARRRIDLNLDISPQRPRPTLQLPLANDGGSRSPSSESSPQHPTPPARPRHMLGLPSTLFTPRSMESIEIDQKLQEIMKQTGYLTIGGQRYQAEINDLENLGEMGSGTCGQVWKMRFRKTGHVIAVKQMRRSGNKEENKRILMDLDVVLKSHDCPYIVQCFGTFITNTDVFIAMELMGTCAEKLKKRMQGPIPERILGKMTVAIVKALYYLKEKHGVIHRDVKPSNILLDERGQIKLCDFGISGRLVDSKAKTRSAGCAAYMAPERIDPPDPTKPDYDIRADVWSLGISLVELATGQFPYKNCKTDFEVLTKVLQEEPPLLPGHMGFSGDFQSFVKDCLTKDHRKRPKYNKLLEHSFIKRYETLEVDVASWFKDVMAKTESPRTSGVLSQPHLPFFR

CC1=C(C#N)C(c2ccc3[nH]nc(C)c3c2)C(C#N)=C(C)N1 [BAY-474]
inactive: inhibition [1] 8% | inhibition [2] 7% | inhibition [3] 13% | inhibition [4] 26% | inhibition [5] 13% | inhibition [6] -1% | inhibition [7] 13% | inhibition [8] 27% | inhibition [9] 5.48% | inhibition [10] 2.64% | inhibition [11] 22% | inhibition [12] -5.32% | inhibition [13] 19% | inhibition [14] 13.9%

CC1=C(C#N)[C@@H](c2ccc3[nH]nc(C)c3c2)C(C#N)=C(c2ccc(Cl)cc2)N1 [BAY-827]
inactive: residual activity [15] 82.8% | residual activity [16] 100% | residual activity [17] 67.9% | residual activity [18] 84.3% | residual activity [19] 100% | residual activity [20] 75.7% | residual activity [21] 100% | residual activity [22] 100% | residual activity [23] 88.9% | inhibition [9] 9.95% | inhibition [10] -0.0207% | inhibition [12] 2.67% | residual activity [24] 100% | inhibition [14] 8.17%
